The source made the active and inactive calls. How the calls were made is not given here.
Test system: CCRIS mutagenicity, Ames/micronucleus/aberration tests
Experiment: CCRIS mutagenicity studies

Measured: mutagenic call

CS(C)=O
active: Test System: AMES SALMONELLA TYPHIMURIUM, Strain/Indicator: TA1537, Metabolic Activation: NONE, Method: PREINCUBATION (20 MIN) active; positive | Test System: AMES SALMONELLA TYPHIMURIUM, Strain/Indicator: TA1537, Metabolic Activation: NONE, Method: PREINCUBATION (20 OR 60 MIN) active; positive | Test System: AMES SALMONELLA TYPHIMURIUM, Strain/Indicator: TA1537, Metabolic Activation: RAT, LIVER, S-9, PHENOBARBITAL AND 5,6-BENZOFLAVONE, Method: PREINCUBATION (20 MIN) active; positive | Test System: AMES SALMONELLA TYPHIMURIUM, Strain/Indicator: TA2637, Metabolic Activation: NONE, Method: PREINCUBATION (20 MIN) active; positive | Test System: AMES SALMONELLA TYPHIMURIUM, Strain/Indicator: TA2637, Metabolic Activation: RAT, LIVER, S-9, PHENOBARBITAL AND 5,6-BENZOFLAVONE, Method: PREINCUBATION (20 MIN) active; positive | Test System: E. COLI, Strain/Indicator: WP2 UVRA, Metabolic Activation: NONE, Method: PREINCUBATION (20 MIN) active; positive | Test System: E. COLI, Strain/Indicator: WP2 UVRA, Metabolic Activation: NONE, Method: STANDARD PLATE active; positive | Test System: MOUSE LYMPHOMA, Strain/Indicator: L5178Y (TK+/TK-), Metabolic Activation: NONE, Method: SUSPENSION/PLATE active; positive
inactive: Test System: AMES SALMONELLA TYPHIMURIUM, Strain/Indicator: TA1535, Metabolic Activation: RAT, LIVER, S-9, AROCLOR 1254 (10 OR 30%), Method: PREINCUBATION inactive; negative | Test System: AMES SALMONELLA TYPHIMURIUM, Strain/Indicator: TA1535, Metabolic Activation: RAT, LIVER, S-9, PHENOBARBITAL AND 5,6-BENZOFLAVONE, Method: PREINCUBATION (20 MIN) inactive; negative | Test System: AMES SALMONELLA TYPHIMURIUM, Strain/Indicator: TA1537, Metabolic Activation: HAMSTER, LIVER, S-9, AROCLOR 1254 (30%), Method: PREINCUBATION inactive; negative | Test System: AMES SALMONELLA TYPHIMURIUM, Strain/Indicator: TA1537, Metabolic Activation: NONE, Method: FLUCTUATION (MICROTITER) inactive; negative | Test System: AMES SALMONELLA TYPHIMURIUM, Strain/Indicator: TA1537, Metabolic Activation: NONE, Method: PREINCUBATION inactive; negative | Test System: AMES SALMONELLA TYPHIMURIUM, Strain/Indicator: TA1537, Metabolic Activation: NONE, Method: STANDARD PLATE inactive; negative | Test System: AMES SALMONELLA TYPHIMURIUM, Strain/Indicator: TA1537, Metabolic Activation: RAT LIVER S-9, AROCLOR 1254, Method: FLUCTUATION (MICROTITER) inactive; negative | Test System: AMES SALMONELLA TYPHIMURIUM, Strain/Indicator: TA1537, Metabolic Activation: RAT, LIVER, S-9, AROCLOR 1254 (30%), Method: PREINCUBATION inactive; negative | Test System: AMES SALMONELLA TYPHIMURIUM, Strain/Indicator: TA1538, Metabolic Activation: NONE, Method: PREINCUBATION (20 MIN) inactive; negative | Test System: AMES SALMONELLA TYPHIMURIUM, Strain/Indicator: TA1538, Metabolic Activation: RAT, LIVER, S-9, PHENOBARBITAL AND 5,6-BENZOFLAVONE, Method: PREINCUBATION (20 MIN) inactive; negative | Test System: AMES SALMONELLA TYPHIMURIUM, Strain/Indicator: TA7001, Metabolic Activation: NONE, Method: FLUCTUATION (MICROTITER) inactive; negative | Test System: AMES SALMONELLA TYPHIMURIUM, Strain/Indicator: TA7001, Metabolic Activation: RAT LIVER S-9, AROCLOR 1254, Method: FLUCTUATION (MICROTITER) inactive; negative | Test System: AMES SALMONELLA TYPHIMURIUM, Strain/Indicator: TA7002, Metabolic Activation: NONE, Method: FLUCTUATION (MICROTITER) inactive; negative | Test System: AMES SALMONELLA TYPHIMURIUM, Strain/Indicator: TA7002, Metabolic Activation: RAT LIVER S-9, AROCLOR 1254, Method: FLUCTUATION (MICROTITER) inactive; negative | Test System: AMES SALMONELLA TYPHIMURIUM, Strain/Indicator: TA7003, Metabolic Activation: NONE, Method: FLUCTUATION (MICROTITER) inactive; negative | Test System: AMES SALMONELLA TYPHIMURIUM, Strain/Indicator: TA7003, Metabolic Activation: RAT LIVER S-9, AROCLOR 1254, Method: FLUCTUATION (MICROTITER) inactive; negative | Test System: AMES SALMONELLA TYPHIMURIUM, Strain/Indicator: TA7004, Metabolic Activation: NONE, Method: FLUCTUATION (MICROTITER) inactive; negative | Test System: AMES SALMONELLA TYPHIMURIUM, Strain/Indicator: TA7004, Metabolic Activation: RAT LIVER S-9, AROCLOR 1254, Method: FLUCTUATION (MICROTITER) inactive; negative | Test System: AMES SALMONELLA TYPHIMURIUM, Strain/Indicator: TA7005, Metabolic Activation: NONE, Method: FLUCTUATION (MICROTITER) inactive; negative | Test System: AMES SALMONELLA TYPHIMURIUM, Strain/Indicator: TA7005, Metabolic Activation: RAT LIVER S-9, AROCLOR 1254, Method: FLUCTUATION (MICROTITER) inactive; negative | Test System: AMES SALMONELLA TYPHIMURIUM, Strain/Indicator: TA7006, Metabolic Activation: NONE, Method: FLUCTUATION (MICROTITER) inactive; negative | Test System: AMES SALMONELLA TYPHIMURIUM, Strain/Indicator: TA7006, Metabolic Activation: RAT LIVER S-9, AROCLOR 1254, Method: FLUCTUATION (MICROTITER) inactive; negative | Test System: E. COLI, Strain/Indicator: WP2, Metabolic Activation: NONE, Method: PREINCUBATION (20 OR 60 MIN) inactive; negative | Test System: E. COLI, Strain/Indicator: WP2, Metabolic Activation: NONE, Method: STANDARD PLATE inactive; negative | Test System: E. COLI, Strain/Indicator: WP2 UVRA, Metabolic Activation: NONE, Method: PREINCUBATION (60 MIN) inactive; negative

From PubChem BioAssay AID1259407 (Chemical Carcinogenesis Research Information System (CCRIS), 2018)
